Test results taken from patent US20210084902A1, “FUNGICIDAL MIXTURE COMPRISING SUBSTITUTED 3-PHENYL-5-(TRIFLUOROMETHYL)-1,2,4-OXADIAZOLES” (BASF SE, priority 2017, published 2021).
Like-named read-outs stand apart in the source and are kept apart here.

Tests used:
Type in all cases: cell-based
Botrytis cinerea = experiment: Fungicidal activity against Botrytis cinerea, micro titer plate (MTP) test; details: Botrytis cinerea, 168 h, read-out: Observed efficacy
[1] = tested on: Colletotrichum orbiculare; experiment: Fungicidal activity against Colletotrichum orbiculare in the microtiterplate test; details: for inhibition of growth at 6.3e-05 ppm: 0.000063 ppm
Leptosphaeria nodorum = experiment: Fungicidal activity against Leptosphaeria nodorum, microtiter plate (MTP) test
Pyricularia oryzae = experiment: microbe, parasite or virus in culture; details: Pyricularia oryzae, 168 h, read-out: Observed efficacy
Septoria tritici = experiment: Fungicidal activity against Septoria tritici, micro titer plate (MTP) test; details: Zymoseptoria tritici, 168 h, read-out: Observed efficacy
[2] = Colletotrichum orbiculare, read-out: Observed efficacy
[3] = Colletotrichum orbiculare, 0.00025 ppm, read-out: Observed efficacy
[4] = Colletotrichum orbiculare, 0.001 ppm, read-out: Observed efficacy
[5] = Colletotrichum orbiculare, 0.016 ppm, read-out: Observed efficacy
[6] = Parastagonospora nodorum, 168 h, 0.004 ppm, read-out: Observed efficacy
[7] = Parastagonospora nodorum, 168 h, 0.25 ppm, read-out: Observed efficacy
[8] = Parastagonospora nodorum, 168 h, read-out: Observed efficacy
[9] = Colletotrichum orbiculare, 0.25 ppm, read-out: Observed efficacy
[10] = Table V.4, component B alone, 0.25 ppm
[11] = Colletotrichum orbiculare, 0.063 ppm, read-out: Observed efficacy
[12] = Parastagonospora nodorum, 168 h, 0.063 ppm, read-out: Observed efficacy
[13] = Table V.4, component B alone, 0.063 ppm

Work on `CNC(=S)c1ccc(-c2noc(C(F)(F)F)n2)cc1` [I.M, N-methyl-4-[5-(trifluoromethyl)-1,2,4-oxadiazol-3-yl]benzenecarbothioamide] yielded an inhibition of growth at […] (Botrytis cinerea; I.M alone, 0.063 ppm) of 1%, an inhibition of growth at […] (Botrytis cinerea; I.M alone, 0.25 ppm) of 2% and an inhibition of growth at 1 ppm (Botrytis cinerea; I.M alone) of 0%. It also gave an inhibition of growth at 4 ppm (Botrytis cinerea; I.M alone) of 15%, an inhibition of growth at 6.3e-05 ppm [1, 2] of 2% and an inhibition of growth at […] [1, 3] of 2%. The inhibition of growth at 0.001 ppm [1, 4] was 1%, the inhibition of growth at 0.004 ppm [1, 2] was 1% and the inhibition of growth at […] [1, 5] was 7%. For the same compound, the inhibition of growth at 0.004 ppm (Leptosphaeria nodorum; [6]) was 6%, the inhibition of growth at […] (Leptosphaeria nodorum; Parastagonospora nodorum, 168 h, 0.016 ppm, read-out: Observed efficacy) was 5% and the inhibition of growth at […] (Leptosphaeria nodorum; [7]) was 7%. It also gave an inhibition of growth at 1 ppm (Leptosphaeria nodorum; [8]) of 18%, an inhibition of growth at 4 ppm (Leptosphaeria nodorum; [8]) of 52% and an inhibition of growth at 1 ppm (Pyricularia oryzae) of 9%. The inhibition of growth at 4 ppm (Pyricularia oryzae) was 32%, the inhibition of growth at […] (Septoria tritici; Table V.5, I.M alone, 0.063 ppm) was 14% and the inhibition of growth at […] (Septoria tritici; Table V.5, I.M alone, 0.25 ppm) was 23%. The inhibition of growth at 1 ppm (Septoria tritici; Table V.5, I.M alone) was 35% and the inhibition of growth at 4 ppm (Septoria tritici; Table V.5, I.M alone) was 42%.

Work on `CC(Cc1ccc(C(C)(C)C)cc1)CN1CCCCC1` (stereo not drawn) [Fenpropidin, fenpropidin] yielded an inhibition of growth at 4 ppm (Botrytis cinerea; component B alone) of 28%, an inhibition of growth at 1 ppm [1, 2] of 9% and an inhibition of growth at 4 ppm [1, 2] of 47%. It also gave an inhibition of growth at 1 ppm (Leptosphaeria nodorum; [8]) of 38% and an inhibition of growth at 1 ppm (Septoria tritici; Table V.4, component B alone) of 1%.

Compound `CC(Cc1ccc(C(C)(C)C)cc1)CN1C[C@@H](C)O[C@@H](C)C1` (stereo partly drawn) [Fenpropimorph, fenpropimorph] has an inhibition of growth at […] (Botrytis cinerea; component B alone, 0.25 ppm) of 29%, an inhibition of growth at […] [1, 9] of 5% and an inhibition of growth at 1 ppm [1, 2] of 19%. It also gave an inhibition of growth at 1 ppm (Pyricularia oryzae) of 8% and an inhibition of growth at […] (Septoria tritici; [10]) of 0%.

Compound `CNC(=O)c1ccc(-c2noc(C(F)(F)F)n2)cc1` [I.A, N-methyl-4-[5-(trifluoromethyl)-1,2,4-oxadiazol-3-yl]benzamide] has an inhibition of growth at […] (Botrytis cinerea; I.A alone, 0.25 ppm) of 3%, an inhibition of growth at 4 ppm (Botrytis cinerea; I.A alone) of 1% and an inhibition of growth at 16 ppm (Botrytis cinerea; I.A alone) of 12%. The inhibition of growth at […] [1, 3] was 2%, the inhibition of growth at 0.001 ppm [1, 4] was 2% and the inhibition of growth at 0.004 ppm [1, 2] was 2%. The inhibition of growth at […] [1, 5] was 2%, the inhibition of growth at […] [1, 11] was 71% and the inhibition of growth at […] (Leptosphaeria nodorum; [12]) was 3%. For the same compound, the inhibition of growth at 1 ppm (Leptosphaeria nodorum; [8]) was 6%, the inhibition of growth at 4 ppm (Leptosphaeria nodorum; [8]) was 14% and the inhibition of growth at 16 ppm (Leptosphaeria nodorum; [8]) was 27%. The inhibition of growth at 1 ppm (Pyricularia oryzae) was 6%, the inhibition of growth at 4 ppm (Pyricularia oryzae) was 12% and the inhibition of growth at 16 ppm (Pyricularia oryzae) was 38%. For the same compound, the inhibition of growth at […] (Septoria tritici; Table V.7, I.A alone, 0.063 ppm) was 3%, the inhibition of growth at […] (Septoria tritici; Table V.7, I.A alone, 0.25 ppm) was 2% and the inhibition of growth at 1 ppm (Septoria tritici; Table V.7, I.A alone) was 0%. For the same compound, the inhibition of growth at 4 ppm (Septoria tritici; Table V.7, I.A alone) was 8% and the inhibition of growth at 16 ppm (Septoria tritici; Table V.7, I.A alone) was 19%.

In the case of `Cn1nc(C(F)F)c(C(=O)Nc2ccccc2Oc2ccc(C(F)(F)F)cc2Cl)c1F` [A.3.29, N-[2-[2-chloro-4-(trifluoromethyl)phenoxy]phenyl]-3-(difluoromethyl)-5-fluoro-1-methyl-pyrazole-4-carboxamide], the inhibition of growth at […] (Botrytis cinerea; component B alone, 0.25 ppm) is reported as 55%, the inhibition of growth at […] [1, 9] is reported as 4% and the inhibition of growth at 1 ppm [1, 2] is reported as 11%. For the same compound, the inhibition of growth at 1 ppm (Pyricularia oryzae) was 14% and the inhibition of growth at […] (Septoria tritici; [13]) was 68%.

`CC(O)(Cn1cncn1)c1ccc(Oc2ccc(Cl)cc2)cc1C(F)(F)F` (stereo not drawn) [Mefentrifluconazol, mefentrifluconazole] gave an Observed efficacy ([1]; 0.001 ppm) of 1 and an Observed efficacy (Leptosphaeria nodorum; 0.004 ppm) of 53.

With `O=C(Nc1ccccc1F)c1ccc(-c2noc(C(F)(F)F)n2)cc1` [I.E, N-(2-fluorophenyl)-4-[5-(trifluoromethyl)-1,2,4-oxadiazol-3-yl]benzamide] the inhibition of growth at […] (Botrytis cinerea; I.E alone, 0.063 ppm) was 2%, the inhibition of growth at 1 ppm (Botrytis cinerea; I.E alone) was 2% and the inhibition of growth at 4 ppm (Botrytis cinerea; I.E alone) was 2%. It also gave an inhibition of growth at 16 ppm (Botrytis cinerea; I.E alone) of 3%, an inhibition of growth at 63 ppm (Botrytis cinerea; I.E alone) of 16% and an inhibition of growth at […] [1, 9] of 4%. For the same compound, the inhibition of growth at 1 ppm [1, 2] was 4%, the inhibition of growth at 4 ppm [1, 2] was 11% and the inhibition of growth at 16 ppm ([1]; Colletotrichum orbiculare, 16 ppm, read-out: Observed efficacy) was 52%. For the same compound, the inhibition of growth at 16 ppm (Leptosphaeria nodorum; [8]) was 18%, the inhibition of growth at 63 ppm (Leptosphaeria nodorum; Parastagonospora nodorum, 168 h, 63 ppm, read-out: Observed efficacy) was 22% and the inhibition of growth at 1 ppm (Pyricularia oryzae) was 5%. It also gave an inhibition of growth at 4 ppm (Pyricularia oryzae) of 5%, an inhibition of growth at 16 ppm (Pyricularia oryzae) of 6% and an inhibition of growth at 63 ppm (Pyricularia oryzae) of 9%. For the same compound, the inhibition of growth at […] (Septoria tritici; Table V.6, I.E alone, 0.25 ppm) was 13%, the inhibition of growth at 4 ppm (Septoria tritici; Table V.6, I.E alone) was 7% and the inhibition of growth at 16 ppm (Septoria tritici; Table V.6, I.E alone) was 13%. It also gave an inhibition of growth at 63 ppm (Septoria tritici; Table V.6, I.E alone, 63 ppm) of 14%.

With `O=C1c2ccccc2C(=O)N1SC(Cl)(Cl)Cl` [Folpet, folpet] the inhibition of growth at 1 ppm (Botrytis cinerea; component B alone) was 13%, the inhibition of growth at 1 ppm [1, 2] was 20% and the inhibition of growth at 1 ppm (Leptosphaeria nodorum; [8]) was 40%. The inhibition of growth at 1 ppm (Pyricularia oryzae) was 14% and the inhibition of growth at 1 ppm (Septoria tritici; Table V.4, component B alone) was 70%.

`CCN(C)C=Nc1cc(Br)c(OC2CCC(C(C)C)CC2)nc1C` (stereo not drawn) [K.1.32, N′-[5-bromo-6-(4-isopropylcyclohexoxy)-2-methyl-3-pyridyl]-N-ethyl-N-methyl-formamidine] was tested, and the inhibition of growth at […] [1, 9] was 26%, the inhibition of growth at […] (Leptosphaeria nodorum; [7]) was 40% and the inhibition of growth at […] (Septoria tritici; [10]) was 0%. The inhibition of growth at 1 ppm (Septoria tritici; Table V.4, component B alone) was 0%.

For `Cc1ccc(-c2c(Cl)nc(C#N)n2S(=O)(=O)N(C)C)cc1` [Cyazofamid, cyazofamid], the inhibition of growth at […] (Leptosphaeria nodorum; [7]) was 6%, the inhibition of growth at 4 ppm (Pyricularia oryzae) was 13% and the inhibition of growth at 4 ppm (Septoria tritici; Table V.4, component B alone) was 2%. The inhibition of growth at 16 ppm (Septoria tritici; Table V.4, component B alone) was 8%.

`N#Cc1c(Cl)c(Cl)c(Cl)c(C#N)c1Cl` [Chlorothalonil, chlorothalonil] showed an inhibition of growth at 1 ppm (Botrytis cinerea; component B alone) of 22%, an inhibition of growth at 1 ppm (Leptosphaeria nodorum; [8]) of 72% and an inhibition of growth at […] (Septoria tritici; [10]) of 25%.

`CNC(=O)C(=N/OC)/C(C)=C\COc1ccn(-c2ccc(Cl)cc2Cl)n1` [A.1.34, (Z,2E)-5-[1-(2,4-dichlorophenyl)pyrazol-3-yl]-oxy-2-methoxyimino-N,3-dimethyl-pent-3-enamide] showed an inhibition of growth at 16 ppm (Botrytis cinerea; component B alone) of 2%, an inhibition of growth at 63 ppm (Botrytis cinerea; component B alone) of 18% and an inhibition of growth at 6.3e-05 ppm [1, 2] of 37%. The inhibition of growth at […] (Leptosphaeria nodorum; [12]) was 45%.

For `CC1COC(Cn2cncn2)(c2ccc(Oc3ccc(Cl)cc3)cc2Cl)O1` (stereo not drawn) [Difenoconazol, difenoconazole], the inhibition of growth at […] [1, 5] was 1%, the inhibition of growth at […] [1, 9] was 14% and the inhibition of growth at […] (Leptosphaeria nodorum; [12]) was 41%. For the same compound, the inhibition of growth at […] (Septoria tritici; Table V.4, component B alone, 0.016 ppm) was 4%.

In the case of `COc1ccc(C(=CC(=O)N2CCOCC2)c2ccc(Cl)cc2)cc1OC` [Dimethomorph, dimethomorph], the inhibition of growth at 4 ppm [1, 2] is reported as 21%, the inhibition of growth at 4 ppm (Leptosphaeria nodorum; [8]) is reported as 41% and the inhibition of growth at 1 ppm (Pyricularia oryzae) is reported as 4%. The inhibition of growth at 4 ppm (Pyricularia oryzae) was 8% and the inhibition of growth at 4 ppm (Septoria tritici; Table V.4, component B alone) was 11%.

With `CO/N=C(/C1=NOCCO1)c1ccccc1Oc1ncnc(Oc2ccccc2Cl)c1F` [Fluoxastrobin, fluoxastrobin] the inhibition of growth at […] [1, 11] was 51%, the inhibition of growth at […] (Leptosphaeria nodorum; [7]) was 38% and the inhibition of growth at […] (Septoria tritici; [13]) was 3%. For the same compound, the inhibition of growth at […] (Septoria tritici; [10]) was 32%.

`CCCCNC(=O)n1c(NC(=O)OC)nc2ccccc21` [Benomyl, benomyl] was tested, and the inhibition of growth at […] (Botrytis cinerea; component B alone, 0.016 ppm) was 8%, the inhibition of growth at 9 ppm ([1]; Colletotrichum orbiculare, 9 ppm, read-out: Observed efficacy) was 38% and the inhibition of growth at 1 ppm (Leptosphaeria nodorum; [8]) was 15%.

For `Cc1cc(C2CC2)nc(Nc2ccccc2)n1` [Cyprodinil, cyprodinil], the inhibition of growth at 1 ppm (Botrytis cinerea; component B alone) was 66%, the inhibition of growth at 1 ppm [1, 2] was 35% and the inhibition of growth at 4 ppm [1, 2] was 38%. For the same compound, the inhibition of growth at 0.004 ppm (Leptosphaeria nodorum; [6]) was 71% and the inhibition of growth at 1 ppm (Pyricularia oryzae) was 56%.

`CNC(=O)/C(=N/OC)c1ccccc1Oc1ccccc1` [Metominostrobin, metominostrobin] showed an inhibition of growth at 1 ppm (Leptosphaeria nodorum; [8]) of 43%, an inhibition of growth at 1 ppm (Pyricularia oryzae) of 59% and an inhibition of growth at 1 ppm (Septoria tritici; Table V.4, component B alone) of 46%.
